Data as given in PMC9459403, “New inhibitors of cathepsin V impair tumor cell proliferation and elastin degradation and increase immune cell cytotoxicity” (Computational and Structural Biotechnology Journal, 2022).
Entries after “also recorded” stand apart in the source; their conditions may differ.

How the values were obtained:
[1] = system: K-562 cells; assay: Cell viability assay (MTS); type: cell-based, human; settings: 24 h
Description: (§1) The effect of compound 7 on the viability of NK-92, TALL-104, and K-562 cells was evaluated using the MTS [3-(4,5-dimethylthiazol-2-yl)-5-(3-carboxymetoxyphenyl)-2-(4-sulfophenyl)–2H-tetrazolium] colorimetric assay (CellTiter 96 Aqueous One Solution Cell Proliferation Assay, Promega, Madison, WI, USA). NK-92, TALL-104, and K-562 cells were seeded at 2.5 × 10^4, 1 × 10^5, and 1 × 10^4 cells/well, respectively, into a 96-well microplate and treated with inhibitors (2.5, 5, or 10 µM) or DMSO (0.1 %) for 24 h. After incubation, 10 µL of the reagent MTS was added to the wells, and the absorbance of formazan was measured at 492 nm on a Tecan Infinite M1000 (Mannedorf, Switzerland). Cell viability (%) was expressed as the ratio between absorbance in the presence of the compounds and in the presence of DMSO. All assays were performed in quadruplicate and repeated at least twice.

[2] = molecular target: T1, Cathepsin V (Homo sapiens, UniProt O60911); assay: Determination of relative inhibition, substrate Z-Phe-Arg-AMC; type: biochemical; settings: inhibitor 50 μM; substrate 2 μM; mean ± SD (n = 2); read-out: Cathepsin V Ri (%) relative inhibition
T1 construct: made in house; host or cells: Pichia pastoris
Description: (§2) Human recombinant cathepsin V was expressed in Pichia Pastoris, and human recombinant cathepsin L was expressed in Escherichia coli, as reported, [51]. To determine the activities of cathepsins V and L, 100 mM acetate buffer (pH 5.5), containing 0.1 % PEG 8000 (Sigma-Aldrich, St. Louis, MO, USA), 5 mM cysteine, and 1.5 mM EDTA was used. Prior to the assay, the enzyme was activated in the assay buffer for 5 min at 37 °C.
(§3) The effect of the inhibitors on cathepsin V and L activity was determined using the substrate Z-Phe-Arg-AMC (Bachem, Bubendorf, Switzerland). The reaction was initiated by adding 90 μL of the activated enzyme (final concentration 2.5 ng/mL and 0.02 nM for cathepsins V and L, respectively) to the wells of a black microtiter plate containing 5 μL of substrate (with a final concentration 2 μM) and 5 μL of inhibitor (with a final concentration of 50 μM). The formation of fluorescent degradation products during the reaction was monitored continuously at 460 nm ± 10 nm with excitation at 380 nm ± 20 nm at 37 °C on a Tecan Infinite M1000 (Mannedorf, Switzerland) spectrofluorometer. All assay mixtures contained 5 % (v/v) DMSO. To prevent false-positive inhibition due to the formation of compound aggregates, 0.01 % Triton X-100 was used. All measurements were performed in triplicate and repeated at least twice. Relative inhibition was calculated using the following equation: relative inhibition (%) = 100(1- vi/vo), where vi and vo denote the reaction velocities in the presence and absence of the inhibitor, respectively.

[3] = molecular target: T2, human recombinant cathepsin L (Homo sapiens, UniProt P07711); assay: as above; type: biochemical; settings: inhibitor 50 μM; substrate 2 μM; mean ± SD (n = 2); read-out: Cathepsin L Ri (%) relative inhibition
T2 construct: made in house; host or cells: Escherichia coli
Description: as §2, §3

[4] = molecular target: T1, Cathepsin V; assay: Determination of binding reversibility (dilution method); type: biochemical; settings: inhibitor 100 μM, cathepsin V 500 ng/ml
Description: Binding reversibility was determined according to the dilution method, which measures the recovery of enzymatic activity after rapid dilution of the enzyme-inhibitor complex. Cathepsin V (500 ng/ml) was incubated in the assay buffer with the inhibitor (100 μM). Half of the reaction mixture was immediately diluted 100-fold with the assay buffer and added to the wells of a black microplate containing 5 μL of substrate (at a final concentration of 2 μM), and the activity was measured. The other half of the reaction mixture was incubated for 2 h before it was diluted 100-fold, and then the activity was measured. The assay was performed in triplicates and repeated at least two times.

[5] = system: MCF7 cells; assay: Proliferation assay (CFSE-labeled cells, flow cytometry); type: cell-based, human; settings: 72 h
Description: To assess the effect of cathepsin V inhibitors on cell proliferation, MCF7 cells were fluorescently labeled with carboxyfluorescein succinimidyl ester (CFSE; ImmunoChemistry Technologies, Bloomington, MN, USA) in PBS for 15 min at room temperature according to the manufacturer’s instructions. Cells were washed with PBS, resuspended in complete medium, seeded (at 4 × 10^4 cells/well) into 24-well plates, and allowed to adhere overnight. Cells were then treated with the following inhibitors: compound 7 (10 μM), E-64d (10 μM), CLIK-148 (1 μM), LHVS (10 nM), pepstatin (20 μM), their combinations, or DMSO (0.1 %) in 500 μL of medium for 72 h at 37 °C. To prepare cells for flow cytometry, cells were detached and transferred to round-bottomed polystyrene tubes and washed with PBS. Before measurement, 7-aminoactinomycin D (7-AAD; ImmunoChemistry Technologies, Bloomington, MN, USA) was added according to the manufacturer’s instructions to exclude dead cells. Therefore, the green fluorescence arising from CFSE was monitored only for viable cells. The measurement was performed using a FACSCalibur instrument (BD Biosciences, San Jose, CA, USA).

[6] = Aqueous stability (HPLC-based assay); type: physicochemical; settings: 50 μM, 60 h
Description: HPLC analyses were performed as described under the Compound characterization section. The method used a Waters Acquity UPLC® HSS C18 SB column (2.1 × 50 mm, 1.8 µm) thermostated at 40 °C, injection volume, 10 µL; flow rate, 0.3 mL/min; detector λ, 280 nm; mobile phase A: 0.1 % TFA (v/v) in water; mobile phase B: MeCN. Method: 0–9 min, 5 % – 95 % B; 9 – 11 min, 95 % B; 11 – 11.5 min, 95 % - 5% B.
Compound 7 stock solution (1 mM) was prepared in DMSO, while internal standard (caffeine, 1 mM) was dissolved in buffer (PBS pH 7.4). The aqueous stability solution was prepared by mixing 1400 µL buffer, 400 µL MeCN, 100 µL internal standard stock solution, and 100 µL compound stock solution in a HPLC vial to give 50 μM compound, 50 μM internal standard, 20 % MeCN, and 5 % DMSO in buffer, which was injected immediately and then at hourly intervals for 60 h while being incubated at 37 °C. The analyte areas under curve (AUCs) were normalized on internal standard AUCs.

[7] = system: TALL-104 cells; assay: Cell viability assay (MTS); type: cell-based; settings: up to 10 μM, 24 h
Description: as §1

[8] = system: NK-92 cells; assay: Cell viability assay (MTS); type: cell-based; settings: up to 10 μM, 24 h
Description: as §1

T1 sequence (O60911 114-334): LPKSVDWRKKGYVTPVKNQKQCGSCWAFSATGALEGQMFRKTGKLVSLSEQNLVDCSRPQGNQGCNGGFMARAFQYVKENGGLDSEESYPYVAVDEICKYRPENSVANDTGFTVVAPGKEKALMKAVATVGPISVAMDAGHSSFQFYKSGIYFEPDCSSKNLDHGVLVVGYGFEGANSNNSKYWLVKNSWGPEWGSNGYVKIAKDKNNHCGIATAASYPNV
T2 sequence (P07711 114-333): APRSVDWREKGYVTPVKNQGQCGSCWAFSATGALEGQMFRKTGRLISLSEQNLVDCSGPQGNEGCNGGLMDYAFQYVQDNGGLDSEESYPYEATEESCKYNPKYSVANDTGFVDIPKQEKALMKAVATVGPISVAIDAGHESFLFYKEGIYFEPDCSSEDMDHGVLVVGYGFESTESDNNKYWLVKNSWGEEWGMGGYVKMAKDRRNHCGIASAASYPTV

## O=C(NCc1cccc2ccccc12)NCC1CCN(C(=O)Oc2ccccc2)CC1 [Compound 7, Phenyl 4-((3-(naphthalen-1-ylmethyl)ureido)methyl)piperidine-1-carboxylate]
[1]; 10 μM
  viability of K-562 cells: slightly decreased
[1]; up to 5 μM
  viability of K-562 cells: not decreased
[2]
  inhibition at 50 µM: > 20%
[3]
  inhibition at 50 µM: 12.1 ± 1.8%
[4]
  binding reversibility: cathepsin V activity after 2 h incubation and 100-fold rapid dilution: reversible; also recorded: restored
[5]; 10 μM, higher CFSE = less proliferation
  increase of fluorescence intensity of CFSE-labeled cells compared to control cells: 50.6 ± 5.1%
[5]; compound 7 10 μM + CLIK-148 1 μM + LHVS 10 nM
  increase of relative CFSE fluorescence intensity, co-treatment with CLIK-148, LHVS, and compound 7 together: 46.1 ± 5.2%
[6]; PBS pH 7.4, 20 % MeCN, 5 % DMSO, 37 °C
  aqueous stability: stable for days
[6]; PBS pH 7.4, 37 °C, smaller than experimental error
  difference between the last and the first timepoint (normalized AUC): < 2%
[7]
  viability of TALL-104 cells: not significantly reduced
[8]
  viability of NK-92 cells: not significantly reduced
